The record followed here is patent US20250268897A1, “USE OF HETEROCYCLIC COMPOUND IN TREATING DISEASES RELATED TO KINASE DRUG-RESISTANT MUTATION AND METHOD THEREFOR” (Sichuan Kelun-Biotech Biopharmaceutical Co., Ltd., priority 2021, published 2025).

The target of one assay is RET-G810S enzyme (Homo sapiens (Human), UniProt P07949, G810S). Nature of the assay: RET inhibition experiment, HTRF KinEASE-TK kit, RET-G810S. In kind it is biochemical. On the technique in general: Time-resolved FRET reads energy transfer from a long-lived donor to a nearby acceptor.
Chain of RET-G810S enzyme (P07949 29-1114 G810S): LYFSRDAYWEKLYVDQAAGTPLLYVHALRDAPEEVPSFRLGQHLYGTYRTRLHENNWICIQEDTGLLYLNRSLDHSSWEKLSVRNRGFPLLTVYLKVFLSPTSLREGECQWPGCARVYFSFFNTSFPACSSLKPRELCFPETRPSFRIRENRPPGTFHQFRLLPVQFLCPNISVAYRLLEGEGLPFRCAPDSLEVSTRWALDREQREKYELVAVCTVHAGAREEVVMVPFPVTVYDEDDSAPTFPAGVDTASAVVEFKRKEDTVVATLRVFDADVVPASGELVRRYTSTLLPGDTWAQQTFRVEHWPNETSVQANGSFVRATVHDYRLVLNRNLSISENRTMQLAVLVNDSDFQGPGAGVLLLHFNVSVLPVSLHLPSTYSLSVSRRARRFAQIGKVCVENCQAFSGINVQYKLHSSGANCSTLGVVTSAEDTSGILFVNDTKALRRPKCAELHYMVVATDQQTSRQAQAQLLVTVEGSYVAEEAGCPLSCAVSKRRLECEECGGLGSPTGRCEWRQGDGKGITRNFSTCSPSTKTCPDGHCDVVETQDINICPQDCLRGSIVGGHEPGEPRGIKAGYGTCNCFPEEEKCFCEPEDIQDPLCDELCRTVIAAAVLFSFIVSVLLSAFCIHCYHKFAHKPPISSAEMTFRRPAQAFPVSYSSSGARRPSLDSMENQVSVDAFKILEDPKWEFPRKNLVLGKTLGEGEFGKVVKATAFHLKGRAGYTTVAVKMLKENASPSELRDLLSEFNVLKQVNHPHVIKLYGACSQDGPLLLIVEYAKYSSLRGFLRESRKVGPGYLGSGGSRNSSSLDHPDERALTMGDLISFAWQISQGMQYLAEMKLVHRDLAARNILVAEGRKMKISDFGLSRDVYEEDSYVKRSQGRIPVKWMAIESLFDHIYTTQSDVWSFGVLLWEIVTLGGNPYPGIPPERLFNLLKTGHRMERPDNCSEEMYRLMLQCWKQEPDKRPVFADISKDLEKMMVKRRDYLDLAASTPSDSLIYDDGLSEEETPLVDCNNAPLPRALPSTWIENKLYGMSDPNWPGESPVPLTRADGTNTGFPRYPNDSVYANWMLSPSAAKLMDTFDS
Assay [1] relates to Ba/F3 KIF5B-RET^G810R subcutaneous tumour. The assay can be described thus: In vivo efficacy in BALB/c Nude mouse model with Ba/F3 KIF5B-RET^G810R subcutaneous tumour. Conditions: 30 mg/kg, PO, BID × 12.
Assay [2] deals with Ba/F3 KIF5B-RET^G810R cells. The assay can be described thus: Inhibition of cell proliferation, Cell Titer Glo, Ba/F3 KIF5B-RET^G810R. In kind it is cell-based. On the procedure: (§1) Experimental purpose: To evaluate the inhibitory effect of the compound on proliferation of three BaF3 cell lines (Ba/F3 KIF5B-RET^G810R, Ba/F3 KIF5B-RET^G810S, Ba/F3 KIF5B-RET^G810C) in vitro.
(§2) Experimental method: Three Ba/F3 cell lines (Ba/F3 KIF5B-RET^G810R, Ba/F3 KIF5B-RET^G810S Ba/F3 KIF5B-RET^G810C) in logarithmic phase were respectively collected and inoculated into 96-well plates, with 2000 cells/95 μl/well. […] In addition, negative control wells (without the test compound) and blank control wells (without cells) were set.
(§3) the inhibition rate % was fitted using the four-parameter equation “log(agonist) vs response-variable slope (four parameters)” in GraphPad Prism 6.0, and the IC50 was obtained by calculation.
(In general: ATP-based viability assays read luminescence as a measure of living cells.)

In another assay the target is RET-G810R enzyme (Homo sapiens (Human), UniProt P07949, G810R). Nature of the assay: RET inhibition experiment, HTRF KinEASE-TK kit, RET-G810R. In kind it is biochemical.
Chain of RET-G810R enzyme (P07949 29-1114 G810R): as the sequence (P07949 29-1114 G810S) above, with S782R counted along it
Assay [3] concerns Ba/F3 KIF5B-RET^G810C cells. The assay can be described thus: Inhibition of cell proliferation, Cell Titer Glo, Ba/F3 KIF5B-RET^G810C. In kind it is cell-based. As to the method:
as §1, §2, §3

Assay [4] relates to Ba/F3 KIF5B-RET^G810S cells. Nature of the assay: Inhibition of cell proliferation, Cell Titer Glo, Ba/F3 KIF5B-RET^G810S. In kind it is cell-based. As to the method:
as §1, §2, §3

For the next assay, the target named is RET-G810C enzyme (Homo sapiens (Human), UniProt P07949, G810C). The assay can be described thus: RET inhibition experiment, HTRF KinEASE-TK kit, RET-G810C. In kind it is biochemical.
Chain of RET-G810C enzyme (P07949 29-1114 G810C): as the sequence (P07949 29-1114 G810S) above, with S782C counted along it
The mark [5] stands for this setting: Mus musculus, BaF3, 72 h, 3 days culture, Cell Titer Glo.

One may read the IC50 as the midpoint of a concentration-inhibition curve. The low end stands for inhibition by little substance, the high end for a need for much substance. `Cc1cc(Nc2cc(C)[nH]n2)nc(-c2ccc(N3CC4CC(C3)N4Cc3ccc(-n4cc(F)cn4)nc3)nc2)n1.O=C(O)/C=C/C(=O)O` [Compound 1-A, Fumarate of 2-(6-(6-((6-(4-fluoro-1H-pyrazol-1-yl)pyridin-3-yl)methyl)-3,6-diazabicyclo [3.1.1]heptan-3-yl)pyridin-3-yl)-6-methyl-N-(5-methyl-1H-pyrazol-3-yl) pyrimidin-4-amine]: the IC50 against RET-G810S enzyme (Table 7, value ± spread) was determined as 2.69 ± 0.56 nM; in assay [2] (setting [5]), 26.3 ± 5.76 nM; on RET-G810R enzyme (Table 7, value ± spread), 19.6 ± 0.67 nM; in assay [3] (setting [5]), 65.3 ± 1 nM; in assay [4] (setting [5]), 20.2 ± 0.35 nM; against RET-G810C enzyme (Table 7, value ± spread) it was 53.2 ± 10.7 nM. Moreover, the “Inhibition on RET-G810S enzyme (in words)” value on RET-G810S enzyme (summary of tables) is “remarkably inhibited”. Also, the “TGI (%) tumour growth inhibition rate” value in assay [1] was 72.37%. Moreover, in assay [1], the “VP12 (mm^3, mean ± SEM): tumour volume on Day 12 of administration” value worked out at 278.53 ± 51.13 mm^3. The “VP-1 (mm^3, mean ± SEM): tumour volume one day before administration” value in assay [1] (baseline of the group) stood at 101.08 ± 4.75 mm^3. For the same molecule, the “Inhibiting the proliferation of Ba/F3 KIF5B-RET^G810R cells (in words)” value in assay [2] (comparison with controls) is “superior to BLU-667 and Loxo-292”. In addition, the “Inhibition on RET-G810R enzyme (in words)” value at RET-G810R enzyme (summary of tables) is “remarkably inhibited”. The “Inhibiting the proliferation of Ba/F3 KIF5B-RET^G810C cells (in words)” value in assay [3] (comparison with controls) is “superior to BLU-667 and Loxo-292”. The “Inhibiting the proliferation of Ba/F3 KIF5B-RET^G810S cells (in words)” value in assay [4] (comparison with controls) was “superior to BLU-667 and Loxo-292”. Besides, the “Inhibition on RET-G810C enzyme (in words)” value on RET-G810C enzyme (summary of tables) was “remarkably inhibited”.
